Measured values published in patent US20060116390A1, “Hepatitis c virus inhibitors” (priority 2003, published 2006).
Where two headings read alike, the source gives them in different places.

Test system: HCV proteins in Rep5.1 cells (replicon cell line)
Assay: Inhibitory activity of HCV: cell-based ELISA in replicon cell line Rep5.1 (decrease of HCV proteins)
Parameters: species or system hepatitis C virus
Conditions: Rep5.1 cells, 72 hours with drug
Outline: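 Rep5.1 replicon cells (5000/well, DMEM-10 with 500 μg/ml G418) were given serially diluted drug 4 h after seeding. After 72 h, cells were fixed in methanol/acetone and HCV proteins detected by cell-based ELISA using replicon-specific patient plasma antibodies. IC50 is the concentration giving 50% protein decrease versus the no-drug control.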

[1] = Hepatitis C virus, 72 h, concentration at which 50% of HCV proteins was decreased, Table 2, read-out: IC50
[2] = Hepatitis C virus, 72 h, decrease of HCV proteins measured by HCV antibody, Table 1, read-out: Level (IC50 values classified)

Structure (SMILES) | IC50 [1] [nM] | IC50 [2] [nM] | IC50 (concentration at which 50% of HCV proteins was decreased, Table 2, read-out: IC50) [nM]
CC1=C(C(=O)OCCCCCC(=O)O)CNC(=S)N1 [18′, 6-methyl-2-thioxo-1,2,3,4-tetrahydro-pyrimidine-5-carboxylic acid 5-carboxy-pentyl ester] | > 100000 | > 20000 | –
O=C(OCc1ccccc1)C1=CNC(=S)NC1 [Compound 44, 2-thioxo-1,2,3,4-tetrahydro-pyrimidine-5-carboxylic acid benzyl ester] | 3000 | 1000 to 10000 | –
CC1=C(C(=O)OCc2ccsc2)CNC(=S)N1 [Compound 139, 6-methyl-2-thioxo-1,2,3,4-tetrahydro-pyrimidine-5-carboxylic acid thiophen-3-ylmethyl ester] | 7000 | 1000 to 10000 | –
CC1=C(C(=O)OCCCc2ccsc2F)C(CF)NC(=S)N1 (stereo not shown) [52′, 4-fluoromethyl-6-methyl-2-thioxo-1,2,3,4-tetrahydro-pyrimidine-5-carboxylic acid 3-(2-fluoro-thiophen-3-yl)-propyl ester] | 22000 | > 20000 | –
CC1=C(C(=O)OCCCc2ccsc2F)C(CO)NC(=S)N1 (stereo not shown) [13″, 4-hydroxymethyl-6-methyl-2-thioxo-1,2,3,4-tetrahydro-pyrimidine-5-carboxylic acid 3-(2-fluoro-thiophen-3-yl)-propyl ester] | 5300 | 1000 to 10000 | –
CC1=C(C(=O)OCCc2ccc(F)cc2Cl)C(CF)NC(=S)N1 (stereo not shown) [86′, 4-fluoromethyl-6-methyl-2-thioxo-1,2,3,4-tetrahydro-pyrimidine-5-carboxylic acid 2-(2-chloro-4-fluoro-phenyl)-ethyl ester] | < 400 | < 1000 | –
CCOc1ccccc1CCOC(=O)C1=C(C)NC(=S)NC1 [Compound 273, 6-methyl-2-thioxo-1,2,3,4-tetrahydro-pyrimidine-5-carboxylic acid 2-(2-ethoxy-phenyl)-ethyl ester] | 800 | < 1000 | –
COc1ccc(Cl)cc1CCOC(=O)C1=C(C)NC(=S)NC1CO (stereo not shown) [56″, 4-hydroxymethyl-6-methyl-2-thioxo-1,2,3,4-tetrahydro-pyrimidine-5-carboxylic acid 2-(5-chloro-2-methoxy-phenyl)-ethyl ester] | 600 | < 1000 | –
CCCN(CCC)c1ccc(CCOC(=O)C2=C(C)NC(=S)NC2CO)cc1[N+](=O)[O-] (stereo not shown) [93″, 4-Hydroxymethyl-6-methyl-2-thioxo-1,2,3,4-tetrahydro-pyrimidine-5-carboxylic acid 2-(4-dipropylamino-3-nitro-phenyl)-ethyl ester] | 500 | < 1000 | –
CCNC(=O)OCC1NC(=S)NC(C)=C1C(=O)OCCCc1cccs1 (stereo not shown) [20″, 4-ethylcarbamoyloxymethyl-6-methyl-2-thioxo-1,2,3,4-tetrahydro-pyrimidine-5-carboxylic acid 3-thiophen-2-yl-propyl ester] | 33300 | > 20000 | –
COc1ccccc1CCCOC(=O)C1=C(C)NC(=S)NC1 [Compound 104, 6-methyl-2-thioxo-1,2,3,4-tetrahydro-pyrimidine-5-carboxylic acid 3-(2-methoxy-phenyl)-propyl ester] | < 400 | < 1000 | –
CC1=C(C(=O)OCCc2c(F)cccc2F)C(CF)NC(=S)N1 (stereo not shown) [75′, 4-fluoromethyl-6-methyl-2-thioxo-1,2,3,4-tetrahydro-pyrimidine-5-carboxylic acid 2-(2,6-difluoro-phenyl)-ethyl ester] | 2600 | 1000 to 10000 | –
CCCCC(C)OC(=O)C1=C(C)NC(=S)NC1 (stereo not shown) [Compound 39, 6-methyl-2-thioxo-1,2,3,4-tetrahydro-pyrimidine-5-carboxylic acid 1-methyl-pentyl ester] | 500 | < 1000 | –
CC1=C(C(=O)OCc2cccc(OCc3ccccc3)c2)CNC(=S)N1 [Compound 50, 6-methyl-2-thioxo-1,2,3,4-tetrahydro-pyrimidine-5-carboxylic acid 3-benzyloxy-benzyl ester] | < 500 | < 1000 | –
CC1=C(C(=O)OCc2cccc(C)c2)CNC(=S)N1 [Compound 90, 6-methyl-2-thioxo-1,2,3,4-tetrahydro-pyrimidine-5-carboxylic acid 3-methyl-benzyl ester] | 400 | < 1000 | –
CC1=C(C(=O)OCCCc2ccco2)C(CF)NC(=S)N1 (stereo not shown) [Compound 270, 4-fluoromethyl-6-methyl-2-thioxo-1,2,3,4-tetrahydro-pyrimidine-5-carboxylic acid 3-furan-2-yl-propyl ester] | 5000 | 1000 to 10000 | –
CC1=C(C(=O)OCCc2ccc(N(C)CC3CC3)c([N+](=O)[O-])c2)C(CO)NC(=S)N1 (stereo not shown) [98″, 4-Hydroxymethyl-6-methyl-2-thioxo-1,2,3,4-tetrahydro-pyrimidine-5-carboxylic acid 2-[4-(cyclopropylmethyl-methyl-amino)-3-nitro-phenyl]-ethyl ester] | 1000 | < 1000 | –

Structure (SMILES) | IC50 [1] [nM] | IC50 [2] [nM] | IC50 (concentration at which 50% of HCV proteins was decreased, Table 2, read-out: IC50) [nM]
CC1=C(C(=O)OCCc2ccsc2)C(CCl)NC(=S)N1 (stereo not shown) [76′, 4-chloromethyl-6-methyl-2-thioxo-1,2,3,4-tetrahydro-pyrimidine-5-carboxylic acid 2-thiophen-3-yl-ethyl ester] | 62000 | > 20000 | –
CC1=C(C(=O)OCc2ccccc2SCC(C)C)CNC(=S)N1 [Compound 111, 6-methyl-2-thioxo-1,2,3,4-tetrahydro-pyrimidine-5-carboxylic acid 2-isobutylsulfanyl-benzyl ester] | 2000 | 1000 to 10000 | –
CC1=C(C(=O)OCC2CCOC2)CNC(=S)N1 (stereo not shown) [Compound 162, 6-methyl-2-thioxo-1,2,3,4-tetrahydro-pyrimidine-5-carboxylic acid tetrahydrofuran-3-ylmethyl ester] | > 100000 | > 20000 | –
CC1=C(C(=O)OCCCc2ccc(C(F)(F)F)cc2)CNC(=S)N1 [Compound 107, 6-methyl-2-thioxo-1,2,3,4-tetrahydro-pyrimidine-5-carboxylic acid 3-(4-trifluoromethyl-phenyl)-propyl ester] | < 400 | < 1000 | –
COc1ccccc1CCOC(=O)C1=C(C)NC(=S)NC1CF (stereo not shown) [42′, 4-fluoromethyl-6-methyl-2-thioxo-1,2,3,4-tetrahydro-pyrimidine-5-carboxylic acid 2-(2-methoxy-phenyl)-ethyl ester] | 4100 | 1000 to 10000 | –
CC1=C(C(=O)OCCc2cccc(OC(F)(F)F)c2)C(CO)NC(=S)N1 (stereo not shown) [75″, 4-hydroxymethyl-6-methyl-2-thioxo-1,2,3,4-tetrahydro-pyrimidine-5-carboxylic acid 2-(3-trifluoromethoxy-phenyl)-ethyl ester] | < 400 | < 1000 | –
CCCOCC#CCOC(=O)C1=C(C)NC(=S)NC1 [Compound 237, 6-methyl-2-thioxo-1,2,3,4-tetrahydro-pyrimidine-5-carboxylic acid 4-propoxy-but-2-inyl ester] | – | – | 1700
CC1=C(C(=O)OCCc2ccsc2F)CNC(=S)N1 [Compound 249, 6-methyl-2-thioxo-1,2,3,4-tetrahydro-pyrimidine-5-carboxylic acid 2-(2-fluoro-thiophen-3-yl)-ethyl ester] | < 400 | < 1000 | –
CC1=C(C(=O)OCCCCCc2ccccc2)C(CO)NC(=S)N1 (stereo not shown) [18″, 4-hydroxymethyl-6-methyl-2-thioxo-1,2,3,4-tetrahydro-pyrimidine-5-carboxylic acid 5-phenyl-pentyl ester] | < 400 | < 1000 | –
CC1=C(C(=O)OCc2ccn(S(=O)(=O)c3ccc(C)cc3)c2)CNC(=S)N1 [Compound 230, 6-methyl-2-thioxo-1,2,3,4-tetrahydro-pyrimidine-5-carboxylic acid 1-(toluene-4-sulfonyl)-1H-pyrrol-3-ylmethyl ester] | < 400 | < 1000 | –
CC1=C(C(=O)OCc2ccc(SC(F)(F)F)cc2)CNC(=S)N1 [Compound 199, 6-methyl-2-thioxo-1,2,3,4-tetrahydro-pyrimidine-5-carboxylic acid 4-trifluoromethylsulfanyl-benzyl ester] | < 400 | < 1000 | –
CC1=C(C(=O)OCc2ccc([N+](=O)[O-])c(C)c2)CNC(=S)N1 [Compound 135, 6-methyl-2-thioxo-1,2,3,4-tetrahydro-pyrimidine-5-carboxylic acid 3-methyl-4-nitro-benzyl ester] | 900 | < 1000 | –
CC1=C(C(=O)OCCc2ccc(F)c(C)c2)C(CO)NC(=S)N1 (stereo not shown) [66″, 4-hydroxymethyl-6-methyl-2-thioxo-1,2,3,4-tetrahydro-pyrimidine-5-carboxylic acid 2-(4-fluoro-3-methyl-phenyl)-ethyl ester] | 700 | < 1000 | –
CC1=C(C(=O)OCCc2ccc(Cl)s2)C(CO)NC(=S)N1 (stereo not shown) [1″, 4-hydroxymethyl-6-methyl-2-thioxo-1,2,3,4-tetrahydro-pyrimidine-5-carboxylic acid 2-(5-chloro-thiophen-2-yl)-ethyl ester] | 1600 | 1000 to 10000 | –
CC1=C(C(=O)OCc2ccccc2)C(C(F)(F)F)NC(=S)N1 (stereo not shown) [Compound 234, 6-methyl-2-thioxo-4-trifluoromethyl-1,2,3,4-tetrahydro-pyrimidine-5-carboxylic acid benzyl ester] | 100000 | > 20000 | –
CC1=C(C(=O)OCc2ccccc2S(C)(=O)=O)CNC(=S)N1 [Compound 112, 6-methyl-2-thioxo-1,2,3,4-tetrahydro-pyrimidine-5-carboxylic acid 2-methanesulfonyl-benzyl ester] | > 100000 | > 20000 | –
CC1=C(C(=O)OC(C)(C)c2ccccc2)CNC(=S)N1 [Compound 27, 6-methyl-2-thioxo-1,2,3,4-tetrahydro-pyrimidine-5-carboxylic acid 1-methyl-1-phenyl-ethyl ester] | 47000 | > 20000 | –
